# Data published in patent US20050009052A1 (priority 2003, published 2005).
# Experiments:
# [1] = test system: pac10Δ/pac10Δ strain; type: cell-based, Saccharomyces cerevisiae; details: pac10Δ/pac10Δ grown individually, YPD, 30° C.; staurosporine 1 μM, caffeine 8 mM, latrunculin B 2 μg/ml
# [2] = test system: rlm1Δ/rlm1Δ strain; experiment: Growth of individually cultured yeast strain with inhibitor (O.D.600); type: cell-based, Saccharomyces cerevisiae; details: rlm1Δ/rlm1Δ grown individually, YPD, 30° C.; staurosporine 1 μM, caffeine 8 mM, tunicamycin 0.4 μg/ml
# [3] = test system: act1Δ/ACT1 strain; experiment: Differential Tag Length Analysis (DTLA) of 11-strain mixed yeast culture with inhibitor; type: cell-based, Saccharomyces cerevisiae; details: 20 hours
# Procedure: (§1) Strains, media and inhibitors.
# (§2) Tag amplification and capillary electrophoresis. Oligonucleotides Fluor-1 (6-Fam-[…]) and Pho-1 (Phosphate-[…]) were used for the amplification of tag DNAs. PCR reactions were performed in 50 μl reaction volume containing the 2 primers at a final concentration of 1 μM each and 2.5 units of Stoffel fragment AmpliTaq DNA polymerase (Applied Biosystems, Foster City, Calif.). After an initial 2 min denaturing step at 94° C., the reactions underwent 30 amplification cycles (94° C., 30 sec; 60° C., 30 sec; 72° C., 30 sec with a 6 sec increase in extension time per cycle) followed by a post-amplification extension step (72° C., 10 min). As a template for the PCR reactions, 100 ng of plasmid DNA, 700 ng of genomic DNA (extracted from yeast strains using MasterPure Yeast DNA purification kit; Epicentre, Madison, Wis.), or an equivalent to 0.5 μl of saturated culture of yeast protoplasts (prepared by using lyticase) (see, e.g., Chen et al., Biotechniques 19:744-746 (1995)) was used. The PCR products were incubated with λ-exonuclease for 1 h at 37° C. and then purified using MinElute PCR purification kit (QIAGEN Inc., Valencia, Calif.). After 1 h digestion with EcoRI, the PCR products were again purified with the same kit and adjusted to 70% formamide and 1 mM EDTA and analyzed by capillary electrophoresis on ABI Prism 3700 DNA analyzer (Applied Biosystems, Foster City, Calif.) using 3700 POP-5 polymer.
# (§3) Data analysis. To access the raw fluorescence data collected by ABI Prism 3700 DNA analyzer, a Visual Basic program was used that extracted the electropherogram values and converted them into a text file format. Peak quantitation was then performed using Caesar Workstation 5.0 (SciBridge Software, Los Angeles, Calif.). In the majority of cases, the relative representation of each tag in the PCR product was calculated by dividing the area under the corresponding tag peak by the sum of all tag peak areas. For the measurement of different input amounts of tag 42, the average peak area of the other 10 tags was first calculated. The area value of tag 42 was then divided by this averaged value to give normalized tag 42 area.
# [4] = test system: bro1Δ/bro1Δ strain; experiment: as above; type: cell-based, Saccharomyces cerevisiae; details: 20 hours; for increase of strain representation in the mixture: staurosporine 1 μM, latrunculin B 2 μg/ml
# Procedure: as §1, §2, §3
# [5] = test system: gim4Δ/gim4Δ strain; experiment: as above; type: cell-based, Saccharomyces cerevisiae
# Procedure: as §1, §2, §3
# [6] = test system: pde2Δ/pde2Δ strain; experiment: as above; type: cell-based, Saccharomyces cerevisiae; details: 20 hours
# Procedure: as §1, §2, §3
# [7] = test system: pkc1Δ/PKC1 strain; experiment: as above; type: cell-based, Saccharomyces cerevisiae; details: 20 hours, caffeine 8 mM
# Procedure: as §1, §2, §3
# [8] = test system: rlm1Δ/rlm1Δ strain; experiment: as above; type: cell-based, Saccharomyces cerevisiae; details: 20 hours
# Procedure: as §1, §2, §3
# [9] = test system: bro1Δ/bro1Δ strain; details: bro1Δ/bro1Δ grown individually, YPD, 30° C.; staurosporine 1 μM, caffeine 8 mM
# [10] = test system: pdr5Δ/pdr5Δ strain; type: cell-based, Saccharomyces cerevisiae; details: pdr5Δ/pdr5Δ grown individually, YPD, 30° C.; staurosporine 1 μM, latrunculin B 2 μg/ml
# [11] = test system: gim4Δ/gim4Δ strain; type: cell-based, Saccharomyces cerevisiae; details: gim4Δ/gim4Δ grown individually, YPD, 30° C.; staurosporine 1 μM, latrunculin B 2 μg/ml
# [12] = test system: pde2Δ/pde2Δ strain; experiment: Growth of individually cultured yeast strain with inhibitor (O.D.600); type: cell-based, Saccharomyces cerevisiae; details: pde2Δ/pde2Δ grown individually, YPD, 30° C.; staurosporine 1 μM, latrunculin B 2 μg/ml
# [13] = test system: ACT1/act1Δ strain; type: cell-based, Saccharomyces cerevisiae; details: ACT1/act1Δ grown individually, YPD, 30° C.; staurosporine 1 μM, latrunculin B 2 μg/ml
# [14] = test system: pac10Δ/pac10Δ strain; type: cell-based, Saccharomyces cerevisiae; details: pac10Δ/pac10Δ in mixed culture, 20 hours
# [15] = test system: pdr5Δ/pdr5Δ strain; experiment: Differential Tag Length Analysis (DTLA) of 11-strain mixed yeast culture with inhibitor; type: cell-based, Saccharomyces cerevisiae; details: pdr5Δ/pdr5Δ in mixed culture, 20 hours; latrunculin B 2 μg/ml
# Procedure: as §1, §2, §3
# [16] = test system: alg7Δ/ALG7 strain; type: cell-based, Saccharomyces cerevisiae; details: alg7Δ/ALG7 grown individually, YPD, 30° C.; staurosporine 1 μM, tunicamycin 0.4 μg/ml
# [17] = test system: alg7Δ/ALG7 strain; experiment: Differential Tag Length Analysis (DTLA) of 11-strain mixed yeast culture with inhibitor; type: cell-based, Saccharomyces cerevisiae; details: alg7Δ/ALG7 in mixed culture, 20 hours; tunicamycin 0.4 μg/ml
# Procedure: as §1, §2, §3
molecule,measurement,setting,value
Cn1c(=O)c2c(ncn2C)n(C)c1=O [caffeine],sensitivity of growth to inhibitor,[1],sensitive
same,sensitivity of growth to inhibitor,[2],sensitive
same,effect on growth of strain in mixed culture,[3]; caffeine 8 mM,decreased growth
same,effect on growth of strain in mixed culture,[4]; caffeine 8 mM,decreased growth
same,effect on growth of strain in mixed culture,[5]; caffeine 8 mM,exhibited sensitivity in the mixture
same,effect on growth of strain in mixed culture,[6]; caffeine 8 mM,decreased growth
same,increase of strain representation in the mixture,[7],97%
same,effect on growth of strain in mixed culture,[8]; caffeine 8 mM,decreased growth
same,sensitivity of growth to inhibitor,[9],sensitive
C/C1=C/C(=O)O[C@@H]2C[C@@H](CC[C@H](C)/C=C\CC1)O[C@@](O)([C@@H]1CSC(=O)N1)C2 [latrunculin B],sensitivity of growth to inhibitor,[10],inhibited the growth
same,sensitivity of growth to inhibitor,[1],inhibited the growth
same,sensitivity of growth to inhibitor,[11],inhibited the growth
same,sensitivity of growth to inhibitor,[12],inhibited the growth
same,sensitivity of growth to inhibitor,[13],inhibited the growth
same,strain representation compared with the non-treated culture (reduced to),[14]; latrunculin B 2 μg/ml,less than 50%
same,strain representation compared with the non-treated culture (reduced to),"[3]; act1Δ/ACT1 in mixed culture, latrunculin B 2 μg/ml",less than 50%
same,increase of strain representation in the mixture,[4],123%
same,strain representation compared with the non-treated culture (reduced to),"[5]; gim4Δ/gim4Δ in mixed culture, 20 hours, latrunculin B 2 μg/ml",less than 50%
same,strain representation compared with the non-treated culture (reduced to),"[6]; pde2Δ/pde2Δ in mixed culture, latrunculin B 2 μg/ml",less than 50%
same,strain representation compared with the non-treated culture (reduced to),[15],less than 50%
CN[C@@H]1C[C@H]2O[C@@](C)([C@@H]1OC)n1c3ccccc3c3c4c(c5c6ccccc6n2c5c31)C(=O)NC4 [staurosporine],increase of strain representation in the mixture,[4],340%
same,increase of strain representation in the mixture,[6]; staurosporine 1 μM,200%
tunicamycin,sensitivity of growth to inhibitor,[16],slowed the growth
same,sensitivity of growth to inhibitor,[2],slowed the growth
same,increase of strain representation in the mixture,[14]; tunicamycin 0.4 μg/ml,82%
same,reduction of strain relative to the non-treated culture,[17],83%
same,decrease/reduction of strain relative to the non-treated culture,"[8]; rlm1Δ/rlm1Δ in mixed culture, staurosporine 1 μM, tunicamycin 0.4 μg/ml",59%
